The target of the experiment is mouse TRPM3α2 (mTRPM3) ion channel (Mus musculus (Mouse), UniProt J9SQF3). The experiment can be described thus: TRPM3 ion channel driven Ca2+ uptake, Fluo-4 AM assay, mTRPM3alpha2 overexpressing flip-in HEK293 cells stimulated with pregnenolone sulfate. Type of experiment: cell-based. A digest of the protocol:
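Read-out is Ca2+ influx via Fluo-4 AM fluorescence at 485/535 nm, taken right after seeding ~2000 cells/well onto compound with 50 μM PS. Inhibition computed from RFU between vehicle-stimulated and positive-control-inhibitor wells; cells were mTRPM3α2-overexpressing flip-in HEK293.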

Setting [1] is: PS (50 μM) stimulated, cpd 001-199.
Setting [2] is: PS (50 μM) stimulated, cpds. 667-751.
Setting [3] is: PS (50 μM) stimulated, cpds. 500-599.
The mark [4] stands for this setting: PS (50 μM) stimulated, cpds. 400-499.

The structures appear in SMILES notation.

Sequence of mouse TRPM3α2 (mTRPM3) ion channel (J9SQF3 other isoform, or with tags, fused parts or gaps): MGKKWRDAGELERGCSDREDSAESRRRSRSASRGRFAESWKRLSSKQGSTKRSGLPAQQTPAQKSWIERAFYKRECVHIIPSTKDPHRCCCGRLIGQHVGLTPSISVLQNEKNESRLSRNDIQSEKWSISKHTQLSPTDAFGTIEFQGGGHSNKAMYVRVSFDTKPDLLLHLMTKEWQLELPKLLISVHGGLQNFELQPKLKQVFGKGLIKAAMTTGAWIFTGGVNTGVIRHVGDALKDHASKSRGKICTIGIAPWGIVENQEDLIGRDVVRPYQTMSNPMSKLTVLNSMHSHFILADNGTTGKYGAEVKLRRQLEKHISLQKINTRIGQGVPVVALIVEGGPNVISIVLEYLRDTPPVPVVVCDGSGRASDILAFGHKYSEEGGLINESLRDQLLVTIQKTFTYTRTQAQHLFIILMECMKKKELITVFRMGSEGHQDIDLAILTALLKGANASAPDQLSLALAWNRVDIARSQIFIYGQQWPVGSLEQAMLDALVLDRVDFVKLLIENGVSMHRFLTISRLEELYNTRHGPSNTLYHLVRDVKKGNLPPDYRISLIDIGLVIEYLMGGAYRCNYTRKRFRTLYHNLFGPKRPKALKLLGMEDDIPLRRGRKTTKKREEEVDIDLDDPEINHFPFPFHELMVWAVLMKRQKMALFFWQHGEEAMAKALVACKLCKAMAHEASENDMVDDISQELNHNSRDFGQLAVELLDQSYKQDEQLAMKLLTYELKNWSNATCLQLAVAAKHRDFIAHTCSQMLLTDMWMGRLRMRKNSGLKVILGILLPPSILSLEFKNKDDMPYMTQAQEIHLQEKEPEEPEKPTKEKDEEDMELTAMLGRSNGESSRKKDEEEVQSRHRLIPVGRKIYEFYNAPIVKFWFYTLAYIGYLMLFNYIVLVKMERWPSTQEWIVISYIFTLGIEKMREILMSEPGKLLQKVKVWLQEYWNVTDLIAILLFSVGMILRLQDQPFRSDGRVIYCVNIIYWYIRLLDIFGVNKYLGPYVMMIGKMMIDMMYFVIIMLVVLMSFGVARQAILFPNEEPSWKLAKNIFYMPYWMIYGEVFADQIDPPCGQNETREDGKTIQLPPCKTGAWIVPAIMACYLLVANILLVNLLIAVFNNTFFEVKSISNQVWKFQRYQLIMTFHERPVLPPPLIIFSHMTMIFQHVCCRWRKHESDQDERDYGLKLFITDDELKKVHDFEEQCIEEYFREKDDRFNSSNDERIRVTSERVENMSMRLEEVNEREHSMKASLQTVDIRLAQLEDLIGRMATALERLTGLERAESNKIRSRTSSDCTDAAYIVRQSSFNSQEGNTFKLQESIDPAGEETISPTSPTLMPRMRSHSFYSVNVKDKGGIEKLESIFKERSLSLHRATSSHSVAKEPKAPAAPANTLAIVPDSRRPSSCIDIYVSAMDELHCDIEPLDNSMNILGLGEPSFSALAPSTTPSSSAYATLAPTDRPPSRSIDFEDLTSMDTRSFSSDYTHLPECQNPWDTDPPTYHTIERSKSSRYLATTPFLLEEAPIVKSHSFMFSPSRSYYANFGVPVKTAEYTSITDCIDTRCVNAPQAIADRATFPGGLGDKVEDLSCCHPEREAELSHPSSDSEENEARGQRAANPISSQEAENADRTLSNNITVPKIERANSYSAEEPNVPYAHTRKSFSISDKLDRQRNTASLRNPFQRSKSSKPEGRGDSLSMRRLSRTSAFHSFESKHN

In the case of `Cc1oc2ccc(OCc3cccnc3N3CCC3)cc2c1C(=O)NC1(CO)CCOCC1` [compound 337, 5-((2-(azetidin-1-yl)pyridin-3-yl)methoxy)-N-(4-(hydroxymethyl)tetrahydro-2H-pyran-4-yl)-2-methylbenzofuran-3-carboxamide], under “PS 50 μM, cpds 300-399”, the IC50 (as a rule, the concentration that gives 50% inhibition) was under 1 µM.
`Cc1ncsc1COc1ccc2oc(C)c(C(=O)N[C@@H](CS(C)(=O)=O)C(N)=O)c2c1` [compound 272, (R)-N-(1-amino-3-(methylsulfonyl)-1-oxopropan-2-yl)-2-methyl-5-((4-methylthiazol-5-yl)methoxy)benzofuran-3-carboxamide]: the IC50 (PS 50 μM, cpds 200-299) is under 1 µM.
The compound `O=C(NC1CCNCC1(F)F)c1c(C(F)F)oc2ccc(OCc3cccnc3C(F)(F)F)cc12` (single isomer, unassigned) [199-En 1, 2-(difluoromethyl)-N-(3,3-difluoropiperidin-4-yl)-5-((2-(trifluoromethyl)pyridin-3-yl)methoxy) -benzofuran-3-carboxamide] yielded an IC50 under setting [1] of under 1 µM.
Regarding `Cc1oc2ccc(OCc3cccnc3OC3CC3)cc2c1C(=O)N[C@@H](CO)C(N)=O` [compound 710, (S)-N-(1-amino-3-hydroxy-1-oxopropan-2-yl)-5-((2-cyclopropoxypyridin-3-yl)methoxy)-2-methylbenzofuran-3-carboxamide], under setting [2], the IC50 was under 1 µM.
Compound `Cc1oc2ccc(OCc3nccs3)cc2c1C(=O)N[C@H]1CCNC1` [compound 025, (S)-2-methyl-N-(pyrrolidin-3-yl)-5-(thiazol-2-ylmethoxy)benzofuran-3-carboxamide] gave an IC50 under setting [1] of under 1 µM.
Take `Cc1ncsc1COc1cc(F)c2oc(C)c(C(=O)NC3(C(N)=O)COC3)c2c1` [compound 588, N-(3-carbamoyloxetan-3-yl)-7-fluoro-2-methyl-5-((4-methylthiazol-5-yl)methoxy)benzofuran-3c-arboxamide]: under setting [3], the IC50 was under 1 µM.
For `Cc1ncsc1COc1ccc2oc(C)c(C(=O)NC(CO)CN(C)C)c2c1` (single isomer, unassigned) [413-En 1, N-(1-(dimethylamino)-3-hydroxypropan-2-yl)-2-methyl-5-((4-methylthiazol-5-yl)methoxy)benzofuran-3-carboxamide], the IC50 under setting [4] was under 1 µM.
Take `Cc1ncsc1COc1ccc2oc(C)c(C(=O)Nc3cnn(C)c3)c2c1` [compound 152, 2-methyl-N-(1-methyl-1H-pyrazol-4-yl)-5-((4-methylthiazol-5-yl)methoxy)benzofuran-3-carboxamide]: the IC50 under setting [1] was under 1 µM.
Under “PS 50 μM, cpds 200-299”, `Cc1oc2ccc(OCc3ccncn3)cc2c1C(=O)N[C@@H](CO)C(N)=O` [compound 294, (S)-N-(1-amino-3-hydroxy-1-oxopropan-2-yl)-2-methyl-5-(pyrimidin-4-ylmethoxy)benzofuran-3-carboxamide] registered an IC50 of under 1 µM.
Regarding `Cc1nc(C(F)(F)F)c(COc2ccc3oc(C)c(C(=O)N[C@@H](CO)C(N)=O)c3c2)s1` [compound 282, (S)-N-(1-amino-3-hydroxy-1-oxopropan-2-yl)-2-methyl-5-((2-methyl-4-(trifluoromethyl)thiazol-5-yl)methoxy)benzofuran-3-carboxamide], the IC50 (PS 50 μM, cpds 200-299) is under 1 µM.
Regarding `Cc1ncc(COc2ccc3oc(C)c(C(=O)N[C@@H](CO)C(N)=O)c3c2)o1` [compound 283, (S)-N-(1-amino-3-hydroxy-1-oxopropan-2-yl)-2-methyl-5-((2-methyloxazol-5-yl)methoxy)benzofuran-3-carboxamide], the IC50 (PS 50 μM, cpds 200-299) is under 1 µM.
Under setting [1], `COc1ncccc1COc1ccc2oc(C)c(C(=O)NC3(CO)CCOCC3)c2c1` [compound 058, N-(4-(hydroxymethyl)tetrahydro-2H-pyran-4-yl)-5-((2-methoxypyridin-3-yl)methoxy)-2-methyl-benzofuran-3-carboxamide] gave a half-inhibitory concentration (IC50) of under 1 µM.
`Cc1oc2ccc(OCc3ccc(OCCO)cn3)cc2c1C(=O)NC1CCNCC1(F)F` (single isomer, unassigned) [cpd 567-En 1] displayed an IC50 under setting [3] of over 20 µM.
Same read-out and setting: next, `Cc1ncc(COc2ccc3oc(C)c(C(=O)NC4CCNCC4(F)F)c3c2)s1` (single isomer, unassigned) [cpd 549-En 2]: 1 to 20 µM.
`Cc1oc2ccc(OCc3cccnc3C(F)(F)F)cc2c1C(=O)NC1(CN)CCC1` [compound 136, N-(1-(aminomethyl)cyclobutyl)-2-methyl-5-((2-(trifluoromethyl)pyridin-3-yl)methoxy)benzofuran-3-carboxamide] had an IC50 under setting [1] of under 1 µM.
Under setting [3], `Cc1ncsc1COc1ccc2oc(C)c(C(=O)N(C)C3(CO)COC3)c2c1` [compound 529, N-(3-(hydroxymethyl)oxetan-3-yl)-N.2-dimethyl-5-((4-methylthiazol-5-yl)methoxy)benzofuran-3-carboxamide] registered a concentration for half-maximal inhibition (IC50) of under 1 µM.
In the case of `Cc1oc2ccc(OCc3ccnn3C)cc2c1C(=O)NC1COCC1(F)F` (single isomer, unassigned) [cpd 642-En 1], under “PS (50 μM) stimulated, cpds. 608-666”, the IC50 is under 1 µM.
For `Cc1oc2c(C#N)cc(OCc3cccnc3C(F)(F)F)cc2c1C(=O)NC1CCNCC1(F)F` (single isomer, unassigned) [196-En 2, 7-cyano-N-(3,3-difluoropiperidin-4-yl)-2-methyl-5-((2-(trifluoro-methyl)pyridin-3-yl)methoxy)benzofuran-3-carboxamide], the IC50 under setting [1] fell in the range of 1 to 20 µM.
Under setting [4], `Cc1oc2ccc(OCc3ccccn3)cc2c1C(=O)NC(C)(C)C(N)=O` [compound 442, N-(1-amino-2-methyl-1-oxopropan-2-yl)-2-methyl-5-(pyridin-2-ylmethoxy)benzofuran-3-carboxamide] displayed an IC50 of under 1 µM.
Compound `Cc1cnc(COc2ccc3oc(C)c(C(=O)NC4CCNCC4(F)F)c3c2)cn1` (single isomer, unassigned) [cpd 554-En 1] came in with an IC50 under setting [3] of under 1 µM.
Under “PS 50 μM, cpds 300-399”, `Cc1ncsc1COc1ccc2oc(C)c(C(=O)N[C@H](C(N)=O)C(C)C)c2c1` [compound 304, (S)-N-(1-amino-3-methyl-1-oxobutan-2-yl)-2-methyl-5-((4-methylthiazol-5-yl)methoxy)benzofuran-3-carboxamide] came in with an IC50 of under 1 µM.
With `O=C(NC1(CO)CCOCC1)c1c(C(F)F)oc2ccc(OCc3cccnc3O)cc12` [compound 311, 2-(difluoromethyl)-N-(4-(hydroxymethyl)tetrahydro-2H-pyran-4-yl)-5-((2-oxo-1,2-dihydropyridin-3-yl)methoxy)benzofuran-3-carboxamide], the IC50 (PS 50 μM, cpds 300-399) is under 1 µM.
Turning to `Cc1ncsc1COc1ccc2oc(C)c(C(=O)NC3(CN(C)C)CCC3)c2c1` [compound 108, N-(1-((dimethylamino)methyl)cyclobutyl)-2-methyl-5-((4-methylthiazol-5-yl)methoxy)benzofuran-3-carboxamide], under setting [1], the IC50 is under 1 µM.
Under setting [2], `Cc1ncc(COc2ccc3oc(C)c(C(=O)NC4CCOCC4(F)F)c3c2)s1` (single isomer, unassigned) [cpd 724-En 2] had a concentration for half-maximal inhibition (IC50) of 1 to 20 µM.
Turning to `Cc1ncsc1COc1ccc2oc(C(F)F)c(C(=O)NC3CCN(CCO)C3=O)c2c1` (single isomer, unassigned) [198-En 1, 2-(difluoromethyl)-N-(1-(2-hydroxyethyl)-2-oxopyrrolidin-3-yl)-5-((4-methylthiazol-5-yl) -methoxy)benzofuran-3-carboxamide], the IC50 under setting [1] lay in the range of 1 to 20 µM.
Turning to `Cc1cncc(COc2ccc3oc(C)c(C(=O)NC4CCNC4=O)c3c2)c1` (stereo not shown) [compound 038, 2-methyl-5-((5-methylpyridin-3-yl)methoxy)-N-(2-oxopyrrolidin-3-yl)benzofuran-3-carboxamide], under setting [1], the IC50 is under 1 µM.
The compound `Cc1ncsc1COc1ccc2oc(C)c(C(=O)NCC3(F)COC3)c2c1` [compound 385, N-((3-fluorooxetan-3-yl)methyl)-2-methyl-5-((4-methylthiazol-5-yl)methoxy)benzofuran-3-carboxamide] had an IC50 (PS 50 μM, cpds 300-399) of under 1 µM.
Turning to `COc1ncccc1COc1ccc2oc(C)c(C(=O)N[C@@H](C)CO)c2c1` [compound 496, (S)-N-(1-hydroxypropan-2-yl)-5-((2-methoxypyridin-3-yl)methoxy)-2-methylbenzofuran-3-carboxamide], the half-maximal inhibitory concentration (IC50) under setting [4] is under 1 µM.
Take `Cc1oc2ccc(OCc3cccnc3C3CC3)cc2c1C(=O)N[C@@H](CO)C(N)=O` [compound 702, (S)-N-(1-Amino-3-hydroxy-1-oxopropan-2-yl)-5-((2-cyclopropylpyridin-3-yl)methoxy)-2-methylbenzofuran-3-carboxamide]: the IC50 under setting [2] was under 1 µM.
Still for that read-out and setting: next, `Cc1ncc(COc2ccc3oc(C)c(C(=O)N[C@@H](CO)C(N)=O)c3c2)cn1` [compound 708, (S)-N-(1-Amino-3-hydroxy-1-oxopropan-2-yl)-2-methyl-5-((2-methylpyrimidin-5-yl)methoxy)benzofuran-3-carboxamide]: under 1 µM.
In turn, `Cc1ncsc1COc1ccc2oc(C)c(C(=O)NCC3(C#N)CC3)c2c1` [compound 371, N-((1-cyanocyclopropyl)methyl)-2-methyl-5-((4-methylthiazol-5-yl)methoxy)benzofuran-3-carboxamide] gave an IC50 (PS 50 μM, cpds 300-399) of under 1 µM.
Under setting [3], `Cc1oc2ccc(OCc3cccnc3C(F)(F)F)cc2c1C(=O)NC1CCNCC1(F)F` (single isomer, unassigned) [cpd 546-En 1] yielded an IC50 of under 1 µM.
`Cc1ncsc1COc1ccc2oc(C)c(C(=O)NC(C)(C)CO)c2c1` [compound 104, N-(1-hydroxy-2-methylpropan-2-yl)-2-methyl-5-((4-methylthiazol-5-yl)methoxy)benzofuran-3-carboxamide] registered an IC50 under setting [1] of under 1 µM.
Turning to `Cc1oc2ccc(OCc3cn(C)nc3C(F)(F)F)cc2c1C(=O)N[C@@H](CO)C(N)=O` [compound 692, (S)-N-(1-Amino-3-hydroxy-1-oxopropan-2-yl)-2-methyl-5-((1-methyl-3-(trifluoromethyl)-1H -pyrazol-4-yl)methoxy)benzofuran-3-carboxamide], under setting [2], the IC50 was under 1 µM.
